Assay results reported in US8748130B2, “Human papillomavirus / Ii-Key hybrids and methods of use” (priority 2008, dated 2014).

System: HPV11-specific CTL activity
Experiment: In vivo CTL assay (CFSE-labelled target cells) after co-immunization with CTL epitope HPV11
Parameters: species or system HLA-DR4-tg mice
Conditions: 3 weeks
Experimental: HLA-DR4-tg mice were immunized with no peptide (A); 60 nmole of HPV11 (HPV16 E7 (49-57) an H-2D^b-restricted CTL epitope) (B); 60 nmole of HPV11 plus 15 nmole HPV4 hybrid (C); 60 nmole of HPV11 plus 30 nmole HPV4 hybrid (D); or 60 nmole of HPV11 plus 60 nmole HPV4 hybrid (E). Peptides were mixed with 20 μg of CpG and then emulsified in an equal volume of IFA in a total volume of 150 μl/mouse. Three weeks after immunization, HPV11-specific CTL activity was measured in an in vivo assay whereby the cells were incubated with either the immunizing peptide (HPV11) and a high concentration of CFSE or no peptide and a low concentration of CFSE. Equal numbers of the two cell populations were mixed and injected by tail vein into mice. The top figure indicates the percentage of HPV11-specific CTL killing as determined by the ratio of CFSE^low to CFSE^high cells using the formula 1—CFSE^low/CFSE^high following flowcytometry. The histograms for each group are shown below. The data shown are from pooled splenocytes (2 mice per group).
HLA-DR4-tg mice were immunized with no peptide (A); 60 nmole of HPV11 (HPV16 E7 (49-57), an H-2D^b-restricted CTL epitope) (B); 30 nmole HPV1 plus 60 nmole HPV11 (C); or 30 nmole HPV4 plus 60 nmole HPV11. The peptides were administered as indicated for FIG. 3. Three weeks after immunization, HPV11-specific CTL activity was measured in an in vivo assay (see FIG. 3). […]

Substance: rahynivtf (RAHYNIVTF; Human papillomavirus type 16) [HPV11]
- HPV11-specific CTL killing (%) (Table 5: 60 nmole HPV11 alone, CpG + IFA, pooled splenocytes (2 mice per group)): 19%
- HPV11-specific CTL activity (%) (Table 6: 60 nmole HPV11 alone or with 30 nmole HPV1 or HPV4, CpG + IFA, pooled splenic cells): 14%
